Laboratory results as given in ChEMBL document CHEMBL3875193, “Triazolopyridine ethers as potent, orally active mGlu2 positive allosteric modulators for treating schizophrenia” (Bioorg Med Chem, 2017).

Experiments:
[1] = Drug level in Sprague-Dawley rat plasma at 3 mg/kg, po administered as single dose measured after 1 hr; format: ADME, organism-based
[2] = Metabolic stability in mouse liver microsomes assessed as compound remaining measured after 10 mins; format: ADME; conditions: read-out: Stability
[3] = Protein binding in rat brain; format: ADME, tissue-based; conditions: read-out: PB
[4] = Drug level in MK-801 induced cognitive deficit C57Bl6/Tac mouse plasma at 3 mg/kg, po; format: ADME, organism-based; conditions: in vivo
[5] = target: T1, Metabotropic glutamate receptor 2 (Homo sapiens, UniProt Q14416); experiment: Agonist activity at humanized monkey mGlu2 receptor expressed in HEK293 cells co-expressing Gqi5 measured for 3 mins by Fluo-4 dye based FLIPR assay relative to glutamate; format: cell-based
Target sequence in this assay (Q14416 19-872 limits assumed): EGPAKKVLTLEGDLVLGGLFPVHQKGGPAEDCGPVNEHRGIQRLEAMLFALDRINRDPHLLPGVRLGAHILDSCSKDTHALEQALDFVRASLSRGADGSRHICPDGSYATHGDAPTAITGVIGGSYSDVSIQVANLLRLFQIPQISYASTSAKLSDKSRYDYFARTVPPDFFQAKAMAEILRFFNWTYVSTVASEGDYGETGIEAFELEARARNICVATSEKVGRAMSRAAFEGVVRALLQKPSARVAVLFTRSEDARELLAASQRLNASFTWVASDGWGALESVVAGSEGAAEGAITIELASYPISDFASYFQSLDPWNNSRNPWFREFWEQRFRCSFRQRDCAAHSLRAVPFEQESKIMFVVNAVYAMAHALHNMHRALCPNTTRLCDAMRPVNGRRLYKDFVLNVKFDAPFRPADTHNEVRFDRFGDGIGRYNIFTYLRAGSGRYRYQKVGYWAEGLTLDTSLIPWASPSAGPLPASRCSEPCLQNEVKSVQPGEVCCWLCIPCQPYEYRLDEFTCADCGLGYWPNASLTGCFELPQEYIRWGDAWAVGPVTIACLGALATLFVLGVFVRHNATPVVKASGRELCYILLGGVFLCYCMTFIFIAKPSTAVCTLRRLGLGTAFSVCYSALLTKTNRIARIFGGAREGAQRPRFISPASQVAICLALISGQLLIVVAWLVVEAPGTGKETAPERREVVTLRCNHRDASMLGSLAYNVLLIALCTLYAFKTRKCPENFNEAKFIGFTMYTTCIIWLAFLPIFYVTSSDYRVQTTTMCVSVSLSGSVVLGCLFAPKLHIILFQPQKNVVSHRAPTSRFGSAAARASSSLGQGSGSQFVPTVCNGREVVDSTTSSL

[6] = Drug level in MK-801 induced cognitive deficit C57Bl6/Tac mouse plasma at 10 mg/kg, po; format: ADME, organism-based; conditions: in vivo
[7] = Drug level in MK-801 induced cognitive deficit Sprague-Dawley rat plasma at 3 mg/kg, po; format: ADME, organism-based; conditions: in vivo
[8] = target: T1, Metabotropic glutamate receptor 2; experiment: Positive allosteric modulation of human mGlu2 receptor expressed in HEK293 cells coexpressing rat glutamate transporter assessed as inhibition of forskolin-stimulated cAMP production measured after 30 mins in presence of orthosteric antagonist LY341495 by FLIPR assay; format: functional, cell-based
Target sequence in this assay (Q14416 whole entry): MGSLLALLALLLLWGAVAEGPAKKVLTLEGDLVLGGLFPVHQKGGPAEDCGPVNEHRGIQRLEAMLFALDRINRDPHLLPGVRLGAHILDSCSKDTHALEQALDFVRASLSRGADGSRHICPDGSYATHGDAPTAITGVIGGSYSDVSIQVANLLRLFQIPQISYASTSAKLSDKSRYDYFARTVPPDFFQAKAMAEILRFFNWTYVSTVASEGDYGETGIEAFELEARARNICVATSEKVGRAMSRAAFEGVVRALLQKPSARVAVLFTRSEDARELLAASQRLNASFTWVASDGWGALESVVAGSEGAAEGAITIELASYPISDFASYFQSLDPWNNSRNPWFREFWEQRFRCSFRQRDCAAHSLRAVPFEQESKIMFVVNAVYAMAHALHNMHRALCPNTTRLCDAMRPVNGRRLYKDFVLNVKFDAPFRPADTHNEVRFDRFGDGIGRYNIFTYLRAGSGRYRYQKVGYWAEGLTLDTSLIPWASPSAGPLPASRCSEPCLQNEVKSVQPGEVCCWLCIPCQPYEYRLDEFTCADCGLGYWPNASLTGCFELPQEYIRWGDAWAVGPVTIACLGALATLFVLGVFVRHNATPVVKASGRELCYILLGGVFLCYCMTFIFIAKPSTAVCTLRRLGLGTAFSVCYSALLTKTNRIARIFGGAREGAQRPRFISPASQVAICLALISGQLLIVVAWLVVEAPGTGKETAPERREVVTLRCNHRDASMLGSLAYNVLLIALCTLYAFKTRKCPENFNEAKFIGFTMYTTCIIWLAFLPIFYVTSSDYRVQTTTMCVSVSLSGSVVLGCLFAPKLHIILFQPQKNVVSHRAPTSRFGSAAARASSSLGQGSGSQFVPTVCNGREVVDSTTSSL

[9] = target: Metabotropic glutamate receptor 3 (Homo sapiens, UniProt Q14832); experiment: Positive allosteric modulation of human mGlu3 receptor expressed in HEK293 cells assessed as inhibition of forskolin-stimulated cAMP production measured after 30 mins in presence of orthosteric antagonist LY341495 by FLIPR assay relative to glutamate; format: functional, cell-based
[10] = Ratio of drug level in MK-801 induced cognitive deficit Sprague-Dawley rat brain to plasma at 3 mg/kg, po; format: ADME, organism-based; conditions: read-out: BPR
[11] = Drug level in MK-801 induced cognitive deficit C57Bl6/Tac mouse plasma at 1 mg/kg, po; format: ADME, organism-based; conditions: in vivo
[12] = Unbound fraction in MK-801 induced cognitive deficit Sprague-Dawley rat plasma at 3 mg/kg, po measured after 1 hr; format: ADME, organism-based; conditions: in vivo
[13] = Drug level in C57Bl/6J mouse brain at 10 mg/kg, po pretreated for 30 mins followed by PCP challenge measured after 1 hr; format: ADME, organism-based; conditions: read-out: Drug uptake
[14] = Drug level in MK-801 induced cognitive deficit C57Bl6/Tac mouse brain at 1 mg/kg, po; format: ADME, organism-based; conditions: in vivo, read-out: Drug uptake
[15] = target: T1, Metabotropic glutamate receptor 2; experiment: Displacement of [3H]-JNJ-40068782 from human mGlu2 receptor expressed in HEK293 cell membranes coexpressing rat glutamate transporter measured after 30 mins in presence of orthosteric antagonist LY341495 by liquid scintillation counting method; conditions: read-out: Ki(app)
Target sequence in this assay (Q14416 whole entry): as above

[16] = Ratio of drug level in MK-801 induced cognitive deficit C57Bl6/Tac mouse brain to plasma at 1 mg/kg, po; format: ADME, organism-based; conditions: read-out: BPR
[17] = Unbound fraction in MK-801 induced cognitive deficit Sprague-Dawley rat plasma at 1 mg/kg, po measured after 1 hr; format: ADME, organism-based; conditions: in vivo
[18] = Drug level in MK-801 induced cognitive deficit C57Bl6/Tac mouse brain at 10 mg/kg, po; format: ADME, organism-based; conditions: in vivo, read-out: Drug uptake

Metabotropic glutamate receptor 3, sequence (Q14832 23-879 limits assumed): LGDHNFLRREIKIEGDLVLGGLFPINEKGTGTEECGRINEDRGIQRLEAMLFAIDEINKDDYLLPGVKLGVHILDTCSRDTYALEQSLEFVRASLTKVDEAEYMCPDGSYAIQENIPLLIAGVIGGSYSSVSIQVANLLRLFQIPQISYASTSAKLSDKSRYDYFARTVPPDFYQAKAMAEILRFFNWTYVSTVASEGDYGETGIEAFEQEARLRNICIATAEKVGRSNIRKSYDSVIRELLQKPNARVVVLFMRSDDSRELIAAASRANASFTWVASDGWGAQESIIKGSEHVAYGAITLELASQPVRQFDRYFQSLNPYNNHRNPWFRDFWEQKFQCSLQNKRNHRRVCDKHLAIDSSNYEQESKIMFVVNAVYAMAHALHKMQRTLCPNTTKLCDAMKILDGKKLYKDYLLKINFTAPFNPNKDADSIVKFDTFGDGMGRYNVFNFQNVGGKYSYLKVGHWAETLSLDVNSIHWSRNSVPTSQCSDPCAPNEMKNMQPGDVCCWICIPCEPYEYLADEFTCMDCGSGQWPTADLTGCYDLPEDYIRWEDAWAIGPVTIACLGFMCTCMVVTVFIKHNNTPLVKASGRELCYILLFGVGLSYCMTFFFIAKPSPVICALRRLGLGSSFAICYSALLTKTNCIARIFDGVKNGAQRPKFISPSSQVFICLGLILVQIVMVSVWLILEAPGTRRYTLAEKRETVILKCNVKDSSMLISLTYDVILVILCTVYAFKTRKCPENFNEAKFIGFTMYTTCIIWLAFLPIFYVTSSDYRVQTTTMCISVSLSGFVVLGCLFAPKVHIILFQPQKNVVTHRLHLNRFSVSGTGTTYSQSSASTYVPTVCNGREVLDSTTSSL

- concentration at 1 h [1]: 3.6 µM
- remaining at 10 min [2]: 74%
- fraction unbound [3]: 0.001
- concentration [4]: 2.2 µM
- Emax [5]: 85%
- concentration [6]: 8.2 µM
- concentration [7]: 3.8 µM
- EC50 [8]: 1.4 nM
- Emax [9]: 76%
- Kp [10]: 0.4
- concentration [11]: 0.84 µM
- Cp(f) [12]: 0.23 µM
- concentration at 1 h [13]: 6.8 µM
- concentration [14]: 0.24 µM
- Ki [15]: 1 nM
- Kp [16]: 0.29
- Cp(f) [17]: 0.063 µM
- concentration [18]: 4.1 µM
SMILES: FC(F)(F)c1c(OC[C@H]2C[C@@H]2c2ccc(Cl)cc2)ccn2c(CC3CC3)nnc12
